Source: PMC9814340, “CDK8/19 inhibition plays an important role in pancreatic β-cell induction from human iPSCs” (Stem Cell Research & Therapy, 2023)
Entries after “also recorded” stand apart in the source; their conditions may differ. Read-outs that look alike come from different tables or passages of the source.

Tests used:
[1] = system: Salmonella typhimurium TA1537
Description: (§1) Salmonella typhimurium TA100, TA1535, TA98, and TA1537, and Escherichia coli WP2uvrA were used to detect either frameshift mutations (TA98 and TA1537) or base pair substitutions (TA100, TA1535, and WP2uvrA). These strains are widely used and recommended for use in ICH S2(R1) for the bacterial reversion assay.
(§2) In the current study, rat liver S9 fraction, […], was not included because the mutagenicity of compounds should be assessed when simulating cell cultures but not in vivo after metabolism by liver enzymes. Briefly, each tester strain was mixed with seven concentrations (78.1–5000 μg/plate) of each compound and preincubated for 20 min in test tubes. Two plates per dose for the tested compounds and positive control group, and four plates per dose for the negative control group were used. Dimethyl sulfoxide (FUJIFILM Wako) was selected as solvent for the tested compounds and used as negative control. […] Following preincubation, semisolid top agar was added to the tubes, and then, the mixtures were overlaid on minimal glucose agar plates. After the overlaid agar solidified, the plates were stored at 37 °C in an incubator for 48 h.
(§3) Cultures were examined for signs of compound precipitation and other abnormal conditions by eye. Subsequently, cytotoxicity (decreased background lawn) was assessed using a stereomicroscope. The number of revertant colonies on the plates was counted using an automatic colony analyzer (CA-11, System Science Co., Ltd., Tokyo, Japan) or manually when counting by the automatic colony analyzer was inappropriate, e.g., when precipitation was observed.

[2] = system: β-cells (INS+NKX6.1+) differentiated from human iPSC line Ff-I14-s04; assay: β-cell induction in iPIC differentiation from hiPSCs (compound at stages 5-7), flow cytometry; type: cell-based; conditions: for proportion of β-cells (INS+NKX6.1+), representative dot plot: Fig. 3a
Procedure: For differentiation culture to generate iPICs, we used 2D monolayer to static aggregate culture based on our previous report and 3D stirred-floating aggregate culture. The details of the typical 3D floating culture were as follows.
PD-166866 (1 μM, Merck Millipore) was added from day 4 of stage 6.
Stage 7 medium was based on a previous report with our original modifications. […] To generate iPICs for implantation, cells were dissociated and re-sized in an Elplasia 6-well microwell plate (Corning Incorporated, Corning, NY, USA) or a gas-permeable microwell culture bag (Toyo Seikan Group Holdings, Ltd., Yokohama, Japan) and cultured in the stage 7 medium.
The differentiation efficiency of β-cells (INS^+NKX6.1^+) and endocrine cells (CHGA^+) was analyzed using immunostaining methods and flow cytometry on an LSRFortessa X20 instrument (BD Corporation, Franklin Lakes, NJ, USA), as described previously. The primary antibodies used are detailed in Additional file 1: Table S1. Secondary antibodies were conjugated to Alexa Fluor 488, 546, 568, and 647 of the appropriate species (Thermo Fisher Scientific or Jackson ImmunoResearch, West Grove, PA, USA).

[3] = biological target: T1, CDK8 (Homo sapiens, UniProt P49336); design: Axcelead Drug Discovery Partners (ran the assay); method as in PMID 28392276; conditions: cited from earlier work
[4] = system: Salmonella typhimurium TA100, TA1535, TA98, and TA1537, and Escherichia coli WP2uvrA; assay: Ames mutagenicity assay (bacterial reverse mutation test), five strains, absence of rat liver S9; conditions: for Ames Mutagenicity: result in words, absence of rat liver S9, 78.1-5000 μg/plate
Description: as §1, §2, §3

[5] = biological target: CDK19 (Homo sapiens, UniProt Q9BWU1); assay: biochemical
Procedure: (§4) Briefly, BODIPY-FL- or Cy5-FL-conjugated staurosporine derivative that binds to a highly conserved ATP-binding pocket in kinases was used as a fluorescent probe and tested compounds were applied at 0.1 and 1 μM in competitive binding assays for ~ 350 recombinant protein kinases. TR-FRET fluorescent signals from terbium and BODIPY/Cy5-FL were measured using an EnVision plate reader (PerkinElmer, Waltham, MA, USA), and pIC50 values were extrapolated from the inhibition rate.

[6] = biological target: RIPK2 (Homo sapiens, UniProt O43353); assay: biochemical
Procedure: as §4

[7] = biological target: T1, CDK8; assay: biochemical
Procedure: as §4

[8] = biological target: TGFBR2 (Homo sapiens, UniProt P37173); assay: biochemical
Procedure: as §4

[9] = biological target: TNIK (Homo sapiens, UniProt Q9UKE5); assay: biochemical
Procedure: as §4

[10] = biological target: T2, ALK5 (Homo sapiens, UniProt P36897); assay: TR-FRET-based competitive binding kinase profiling assay; conditions: Yes/No summary of Fig. 1d; method not given
T2 construct: Axcelead Drug Discovery Partners (ran the assay)
T2 sequence (P36897 34-503): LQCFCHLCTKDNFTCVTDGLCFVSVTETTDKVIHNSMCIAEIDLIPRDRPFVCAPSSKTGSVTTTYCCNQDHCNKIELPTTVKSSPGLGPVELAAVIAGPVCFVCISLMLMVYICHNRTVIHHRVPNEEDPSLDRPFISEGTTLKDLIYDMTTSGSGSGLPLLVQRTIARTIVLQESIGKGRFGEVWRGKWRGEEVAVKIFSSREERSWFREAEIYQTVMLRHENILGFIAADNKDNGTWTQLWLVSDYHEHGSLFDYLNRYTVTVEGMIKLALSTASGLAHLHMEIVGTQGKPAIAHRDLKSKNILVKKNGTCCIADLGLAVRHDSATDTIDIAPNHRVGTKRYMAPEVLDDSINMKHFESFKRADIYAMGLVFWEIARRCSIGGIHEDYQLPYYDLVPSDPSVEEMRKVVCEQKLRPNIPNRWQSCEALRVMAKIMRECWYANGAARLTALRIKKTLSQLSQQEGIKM

T1 sequence (P49336 whole entry, species assumed): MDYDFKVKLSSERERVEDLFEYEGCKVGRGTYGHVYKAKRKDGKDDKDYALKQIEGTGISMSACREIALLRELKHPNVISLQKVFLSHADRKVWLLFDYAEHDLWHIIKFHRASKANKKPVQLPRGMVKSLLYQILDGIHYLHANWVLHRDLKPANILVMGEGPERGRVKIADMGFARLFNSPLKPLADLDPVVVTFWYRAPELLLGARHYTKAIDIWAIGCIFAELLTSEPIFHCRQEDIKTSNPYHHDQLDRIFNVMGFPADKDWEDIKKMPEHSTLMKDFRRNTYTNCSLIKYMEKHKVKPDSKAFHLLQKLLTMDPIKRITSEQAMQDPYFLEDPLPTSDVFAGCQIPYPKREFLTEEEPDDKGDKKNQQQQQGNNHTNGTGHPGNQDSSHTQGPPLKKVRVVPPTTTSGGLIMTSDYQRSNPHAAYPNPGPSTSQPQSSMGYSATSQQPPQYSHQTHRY
T1 sequence (P24863 whole entry partner, species assumed): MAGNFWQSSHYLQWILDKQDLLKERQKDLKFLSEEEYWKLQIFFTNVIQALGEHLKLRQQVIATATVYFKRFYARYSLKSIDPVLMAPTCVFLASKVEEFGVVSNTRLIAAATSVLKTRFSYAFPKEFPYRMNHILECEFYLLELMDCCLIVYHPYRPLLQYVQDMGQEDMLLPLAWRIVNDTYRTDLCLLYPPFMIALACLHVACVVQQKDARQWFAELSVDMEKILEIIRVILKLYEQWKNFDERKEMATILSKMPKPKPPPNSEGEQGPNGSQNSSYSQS
TNIK, sequence (Q9UKE5 whole entry, species assumed): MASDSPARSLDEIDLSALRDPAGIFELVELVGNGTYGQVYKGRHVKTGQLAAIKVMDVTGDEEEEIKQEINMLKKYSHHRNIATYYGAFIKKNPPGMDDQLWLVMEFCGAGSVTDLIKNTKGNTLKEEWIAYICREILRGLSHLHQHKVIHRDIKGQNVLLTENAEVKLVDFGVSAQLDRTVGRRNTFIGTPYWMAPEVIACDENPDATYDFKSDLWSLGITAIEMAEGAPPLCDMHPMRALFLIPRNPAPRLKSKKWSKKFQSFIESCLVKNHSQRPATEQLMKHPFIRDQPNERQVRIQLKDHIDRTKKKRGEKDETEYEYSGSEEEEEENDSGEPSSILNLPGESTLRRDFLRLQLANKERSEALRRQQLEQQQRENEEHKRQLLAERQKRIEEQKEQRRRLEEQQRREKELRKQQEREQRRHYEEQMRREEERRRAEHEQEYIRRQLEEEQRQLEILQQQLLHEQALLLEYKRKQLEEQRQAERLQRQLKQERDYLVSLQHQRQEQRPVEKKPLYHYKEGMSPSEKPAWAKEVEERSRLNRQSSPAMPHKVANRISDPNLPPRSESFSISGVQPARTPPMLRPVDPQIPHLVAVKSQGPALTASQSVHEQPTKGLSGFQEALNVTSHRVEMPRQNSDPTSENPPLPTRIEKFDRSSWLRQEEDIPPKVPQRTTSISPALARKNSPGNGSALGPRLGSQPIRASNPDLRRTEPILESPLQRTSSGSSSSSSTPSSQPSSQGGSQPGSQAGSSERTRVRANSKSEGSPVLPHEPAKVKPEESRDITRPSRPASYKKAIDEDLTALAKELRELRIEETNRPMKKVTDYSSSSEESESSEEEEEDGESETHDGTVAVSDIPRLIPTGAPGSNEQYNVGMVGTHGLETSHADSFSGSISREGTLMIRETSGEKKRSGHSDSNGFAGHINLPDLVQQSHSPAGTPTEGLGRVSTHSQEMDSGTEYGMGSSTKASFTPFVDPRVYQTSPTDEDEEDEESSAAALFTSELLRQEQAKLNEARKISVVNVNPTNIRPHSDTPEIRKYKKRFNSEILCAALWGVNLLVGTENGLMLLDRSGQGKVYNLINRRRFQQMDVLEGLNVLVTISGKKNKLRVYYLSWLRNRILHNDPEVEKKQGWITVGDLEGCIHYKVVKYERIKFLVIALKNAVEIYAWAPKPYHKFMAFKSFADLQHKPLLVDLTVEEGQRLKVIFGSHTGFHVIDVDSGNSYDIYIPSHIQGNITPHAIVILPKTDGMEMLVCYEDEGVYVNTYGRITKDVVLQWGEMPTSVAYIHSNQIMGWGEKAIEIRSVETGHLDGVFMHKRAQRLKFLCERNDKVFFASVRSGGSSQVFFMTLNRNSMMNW
CDK19, sequence (Q9BWU1 whole entry, species assumed): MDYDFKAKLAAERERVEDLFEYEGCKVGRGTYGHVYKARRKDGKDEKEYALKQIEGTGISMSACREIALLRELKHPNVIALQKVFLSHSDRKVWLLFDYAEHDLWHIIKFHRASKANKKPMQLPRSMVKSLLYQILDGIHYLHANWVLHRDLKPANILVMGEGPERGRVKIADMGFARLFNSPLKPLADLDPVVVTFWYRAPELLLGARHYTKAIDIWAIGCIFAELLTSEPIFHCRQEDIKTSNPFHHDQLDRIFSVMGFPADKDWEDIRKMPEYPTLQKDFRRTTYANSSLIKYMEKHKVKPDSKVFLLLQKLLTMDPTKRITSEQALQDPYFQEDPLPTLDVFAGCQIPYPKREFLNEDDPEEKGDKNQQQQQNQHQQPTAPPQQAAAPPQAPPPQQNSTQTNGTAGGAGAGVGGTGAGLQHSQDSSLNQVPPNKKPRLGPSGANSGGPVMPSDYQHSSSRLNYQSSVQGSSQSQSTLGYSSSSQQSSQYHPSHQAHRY
CDK19, sequence (P24863 whole entry partner, species assumed): as the sequence (P24863 whole entry partner, species assumed) above
TGFBR2, sequence (P37173 23-567, species assumed): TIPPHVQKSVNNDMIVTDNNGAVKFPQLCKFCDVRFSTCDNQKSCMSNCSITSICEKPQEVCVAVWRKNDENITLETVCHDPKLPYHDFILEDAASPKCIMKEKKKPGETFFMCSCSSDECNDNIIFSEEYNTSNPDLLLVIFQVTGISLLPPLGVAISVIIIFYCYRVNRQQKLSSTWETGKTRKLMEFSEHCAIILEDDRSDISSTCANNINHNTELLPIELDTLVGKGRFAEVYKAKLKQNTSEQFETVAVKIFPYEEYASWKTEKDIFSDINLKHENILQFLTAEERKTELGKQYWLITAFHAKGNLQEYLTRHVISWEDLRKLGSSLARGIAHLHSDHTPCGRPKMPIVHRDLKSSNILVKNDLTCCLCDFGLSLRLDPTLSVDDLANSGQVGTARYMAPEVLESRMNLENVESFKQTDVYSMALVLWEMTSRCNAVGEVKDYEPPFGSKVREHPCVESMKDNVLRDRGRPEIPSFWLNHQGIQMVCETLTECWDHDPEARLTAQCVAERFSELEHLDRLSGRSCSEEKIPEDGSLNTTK
RIPK2, sequence (O43353 whole entry, species assumed): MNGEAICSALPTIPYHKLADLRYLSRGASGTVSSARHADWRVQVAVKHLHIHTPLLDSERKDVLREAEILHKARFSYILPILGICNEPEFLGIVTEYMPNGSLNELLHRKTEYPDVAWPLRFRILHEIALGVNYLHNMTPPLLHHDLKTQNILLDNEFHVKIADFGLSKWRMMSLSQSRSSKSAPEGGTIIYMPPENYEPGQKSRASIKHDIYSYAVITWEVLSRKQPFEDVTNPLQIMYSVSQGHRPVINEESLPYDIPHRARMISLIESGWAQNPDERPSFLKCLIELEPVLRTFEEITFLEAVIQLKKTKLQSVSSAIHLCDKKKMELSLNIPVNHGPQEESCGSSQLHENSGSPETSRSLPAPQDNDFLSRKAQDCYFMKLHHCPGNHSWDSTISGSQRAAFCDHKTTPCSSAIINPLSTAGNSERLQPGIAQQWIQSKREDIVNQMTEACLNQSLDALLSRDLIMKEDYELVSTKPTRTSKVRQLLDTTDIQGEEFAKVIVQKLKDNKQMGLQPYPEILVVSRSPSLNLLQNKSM

## COc1ccc2nc3cc(Cl)ccc3c(NCCCNCCCl)c2c1.Cl.Cl [ICR, [6-Chloro-9-(3-[2-chloroethylamino]propylamino)-2-methoxyacridine] dihydrochloride]
[1]; positive control, 1.0 μg
  TA1537, -S9 # colony: 1804

## CN1CCN(C(=O)c2ccc3cc(CCNc4ncnc5ccc(C#N)cc45)ccc3c2)CC1 [Senexin B]
[2]; 0.1 μM, instead of ALK5iII, stages 5-7
  proportion of β-cells (INS+NKX6.1+), representative dot plot: 39.7%

## Cn1cc(-c2ccnc(O)c2/C=C/C(=O)Nc2ccc(CN3CCOCC3)cc2)cn1 [TR05978156]
[2]; result in words, compound replaces ALK5iII at stages 5-7
  β-cell induction / differentiation efficiency: did not induce β-cells efficiently
[3]
  IC50: > 10 µM

## NC(=O)c1ccc(-c2nc(-c3ccc4c(c3)OCO4)c(-c3ccccn3)[nH]2)cc1 [SB431542]
[4]
  Ames Mutagenicity: did not have mutagenic potential; also recorded: negative

## Cc1cccc(-c2[nH]c(C(C)(C)C)nc2-c2ccc3nccnc3c2)n1 [SB525334]
[4]
  Ames Mutagenicity: Negative; also recorded: did not have mutagenic potential

## Cl.Nc1c2ccccc2nc2ccccc12.O [9-AA, 9-aminoacridine hydrochloride monohydrate]
[1]; positive control, 80 μg
  TA1537, -S9 # colony: 169

## O=C(/C=C/c1cnccc1-c1cnn(C2CC2)c1)Nc1ccc(CN2CCOCC2)cc1 [TR06096159]
[3]
  IC50: 0.0064 µM

## Cc1cccc(-c2n[nH]cc2-c2ccc3ncccc3n2)n1 [ALK5iII]
[5]
  IC50: 0.0661 µM
[6]
  IC50: 0.151 µM
[7]
  IC50: 0.158 µM
[8]
  IC50: 0.107 µM
[9]
  IC50: 0.661 µM
[1]
  Ames response in the TA1537 strain: positive response
[1]; Salmonella typhimurium
  TA1537, -S9 # colony: 8
[2]; 10 μM ALK5iII at stages 5-7
  proportion of β-cells (INS+NKX6.1+), representative dot plot: 35.0%
[4]; Fig. 1b flowchart, absence of S9, positive = mean revertant colonies at least twofold the negative control in any strain
  Ames mutagenicity test: (+)
[4]
  Ames Mutagenicity: Positive
[10]
  ALK5 inhibition: Yes

## c1cncc(-c2n[nH]cc2-c2cnc3ccccc3n2)c1 [TR04411299]
[1]; 78.1 μg/plate, DMSO control 8 (ALK5 inhibitor II) / 9 (TR04411299)
  TA1537, -S9 # colony: 5
[1]; 156 μg/plate, DMSO control 8 / 9
  TA1537, -S9 # colony: 9
[1]; 313 μg/plate, DMSO control 8 / 9
  TA1537, -S9 # colony: 21
[1]; 625 μg/plate, DMSO control 8 / 9
  TA1537, -S9 # colony: 45
[1]; 1250 μg/plate, DMSO control 8 / 9
  TA1537, -S9 # colony: 82
[1]; 2500 μg/plate, DMSO control 8 / 9
  TA1537, -S9 # colony: 128
[1]; 5000 μg/plate, DMSO control 8 / 9
  TA1537, -S9 # colony: 194
[4]
  Ames Mutagenicity: positive result
[10]
  ALK5 inhibition: No and did not inhibit ALK5

## CN(C)C(=O)Cn1cc(-c2ccc(-c3cncc4ccccc34)cc2)cn1 [BI-1347]
[2]; 3 nM, instead of ALK5iII, stages 5-7
  proportion of β-cells (INS+NKX6.1+), representative dot plot: 39.8%
